The values below come from patent US11781149B2, “Systems and methods for control of gene expression” (TRUSTEES OF BOSTON UNIVERSITY, priority 2018, dated 2023).

Usually Kd stands for a measure of binding affinity in units of concentration. For orientation: EC50 means the concentration giving half of the maximal effect.

The target of one assay is T1, erbin PDZ domain (Homo sapiens, UniProt Q96RT1, V1340R).
T1 construct: made in house; host or cells: E. coli BL-21 Rosetta (DE3)pLysS, pMAL-c5X vector
T1 sequence (Q96RT1 with tags, fused parts or gaps V1340R): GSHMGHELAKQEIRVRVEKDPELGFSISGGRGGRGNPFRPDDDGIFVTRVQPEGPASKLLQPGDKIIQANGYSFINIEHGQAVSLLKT
Nature of the assay: Fluorescence anisotropy PDZ-ligand competition binding, erbin. Also noted: key to Erb Kd (μM), PDZ affinity (Kp): nb indicates no binding. Particulars: for Kd: read-out: Erb Kd (μM), PDZ affinity (Kp). The method, then: (§1) Probes were generated by annealing an unlabeled top oligo to a labeled bottom oligo in a 2:1 ratio, while binding competitor oligos were generated using unlabeled top and bottom oligos mixed at equimolar ratios. For PDZ binding experiments, fluorescein-labeled peptide probe (ordered from Selleckhem) used for PDZ binding measurements contained the sequence VKESLV* (SEQ ID NO: 6), where the N-terminus was labeled with a FITC conjugate. Probe concentration was assessed by measuring Abs490. Competitor peptides were purified as MBP-ZF43-8 fusions (see e.g., FIG. 5A-FIG. 5B, FIG. 7A-FIG. 7B).
(§2) All assays were conducted in 20 mM Tris, pH 7.5, 100 mM […], 50 μM ZnCl2 buffer at 25° C. Proteins, probes, and competitor oligos were added to a final volume of 300 μL. Probes were used at 10 nM in all experiments. For complex assembly experiments (FIG. 1C), indicated concentrations of MBP-ZF43-8 harboring a VSKESLV* ligand (SEQ ID NO: 120) (see e.g., FIG. 5A-FIG. 5B, FIG. 7A-FIG. 7B) were titrated against 5 μM concentrations of clamp. Mixtures were allowed to equilibrate at 25° C. for 10 min in Costar black 96-well plates prior to reading. Fluorescence anisotropy (FA) measurements were made at 494 nm using a SpectraMax M5 (Molecular Devices) fluorescence plate reader. For all measurements, anisotropy (r) was calculated using the following equation, wherein I∥ and I⊥ are parallel and perpendicular fluorescence, respectively:
(§3) Fraction of bound probe was calculated using the following equation, wherein rbound and rfree are the anisotropy values for fully bound and fully unbound probe, respectively:
(§4) Each of these values was measured independently of binding curves with either a 100× excess or absence of ZF (in the case of ZF-oligo binding) or PDZ (in the case of PDZ-ligand binding). Q is the ratio of total fluorescence (measured at 454 nm) under rbound and rfree conditions. To obtain binding constants for ZF-probe and PDZ-probe interactions, binding data were fit to the following quadratic equation, wherein [P] is the total concentration of either ZF or PDZ, [probe] is the total concentration of the oligo or peptide probe, and Kd is the dissociation constant of the interaction:
(§5) Competition binding curves were calculated by fitting competition binding curves to the following cubic equation, wherein fb is fraction probe bound, [L*T] is the total probe concentration, [RT] and [R] are total and free concentrations of the ZF, respectively, while [LT] and [L] are total and free concentrations of competitor. Kd1 is the affinity for TF and probe, while Kd2 is the affinity between TF and competitor:
(§6) As a first step toward construction of a molecular assembly scheme amenable to modeling, a set of part variants was identified comprising a range of Kt and Kp values, and then in vitro binding experiments were conducted to directly measure their binding affinities (see e.g., FIG. 6, FIG. 7A, FIG. 7B). […] For each ZF, previously described R-to-A ZF backbone mutations were used as affinity variants (see e.g., Khalil et al., Cell. 150, 647-658 2012). DBM affinity series (DBM1, DBM2, etc.) for both ZFs by were also generated by systematically mutating nucleotides both in the core and directly flanking the core 9-bp recognition sequence (ZF 1: a[…]c (SEQ ID NO: 99); ZF2: a[…]c (SEQ ID NO: 102)). Similarly, PDZ-ligand affinities were measured for two domains (syntrophin ‘syn’ and erbin ‘erb’) and their respective partner ligands. For each pair, ligands of various affinities were obtained from published reports (S1, S2, . . .; E1, E2, . . . )12, 13 (see e.g., FIG. 7A, FIG. 7B). Altogether, this yielded a set of component interactions consisting of 15 ZF-DNA and 13 PDZ-ligand pairs with in vitro-measured values ranging from mid μM to low nM, permitting broad, tunable control of Kt and Kp.
(§7) PDZ-ligand binding constants were measured in vitro by fluorescence anisotropy. Recombinant proteins were purified as described herein. […]

The next assay deals with T2, syntrophin PDZ domain (Mus musculus, UniProt Q61234).
T2 construct: syn PDZ1; made in house; host or cells: E. coli BL-21 Rosetta (DE3)pLysS, pMAL-c5X vector
T2 sequence (Q61234 77-171): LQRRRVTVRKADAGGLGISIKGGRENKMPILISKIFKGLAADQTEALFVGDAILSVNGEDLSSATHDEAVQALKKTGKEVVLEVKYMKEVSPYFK
Nature of the assay: Fluorescence anisotropy PDZ-ligand binding, syntrophin, direct and competition. Also noted: key to Syn Kd (μM), PDZ affinity (Kp): nb indicates no binding. Particulars: for Kd: read-out: Syn Kd (μM), PDZ affinity (Kp). Here is the method: as §1, §2, §3, §4, §5, §6, §7
Background: Fluorescence polarisation rises when a labelled molecule tumbles more slowly, as on binding a larger partner.

In assay [1] the test system is DBM oligo probe (FITC labeled). Nature of the assay: In vitro complex assembly: synTF titration of DBM oligo probe with or without clamp (fluorescence anisotropy). The format is binding.
Excerpt: FIG. 1A-FIG. 1E is a series of graphs and schematics showing the design scheme for assembly-mediated regulatory control of synthetic gene circuits. (FIG. 1A) Nodes in cellular networks use one-to-one regulatory interactions to execute simple computation-al tasks (top); cooperative interactions within multivalent assemblies enable complex, non-linear signal processing (bottom). (FIG. 1B) Design of synthetic TF regulatory assemblies. Complexes are built from interaction domains (ZF and PDZ) and their respective binding partners (DBM and PDZ ligand). Clamp-mediated synTF complex-formation (TA, transcriptional activator domain drives coding sequence transcription). Interaction affinities (Kt and Kp) and the number of repeated complex units (nc) determine thermodynamics of assembly. (FIG. 1C) In vitro assembly of purified cooperative complex components. Fluorescence anisotropy for synTF titration of DBM oligo probe ([…]) and converted to fraction probe bound (Nb, synTFs with binding-deficient PDZ ligand mutants; nc, number of PDZ domains per clamp and DBMs probe). Points represent mean values for three measurements±SE. (FIG. 1D) Testing in vivo complex assembly in yeast using a synthetic gene circuit (GFP output). All genes are chromosomally-integrated (left; see e.g., Table 4). Small molecule-inducible expression systems (ncTET and ncZEV) control intracellular expression levels (see e.g., FIG. 8A, FIG. 8B) of synTF (induced by ATc, 2-500 ng/mL) and clamp (EST, 0.05-12.5 nM), respectively. Adjusting molecular features of assembly (Kt, Kp, nc) tunes overall circuit transfer function (right). (FIG. 1E) Parameterization of thermodynamic complex assembly model. Dose response data for circuit configurations with various Kt, Kp, nc values were fit to a thermodynamic model (see e.g., FIG. 10, FIG. 11); regression plot showing residual from fit are shown at the right. MAE, mean absolute error.
Thus, synTF binding cooperativity is enhanced by the clamp and scales in magnitude with complex size.
as §2, with “For complex assembly experiments (FIG. 1C), indicated concentrations of MBP-ZF43-8 harboring a VSKESLV* ligand (SEQ ID NO: 120) (see e.g., FIG. 5A-FIG. 5B, FIG. 7A-FIG. 7B) were titrated against 5 μM concentrations of clamp.” left out
Species used in the binding assay are described in FIG. 5A and FIG. 5B, and descriptions for protein purification and the binding assay are described elsewhere herein. […]

Assay [2] has as its system HEK293FT reporter cell line. Nature of the assay: Clamp assembly-mediated transcriptional activation, mCherry reporter by flow cytometry. Particulars: transfected into HEK293FT reporter line, 4 tandem DBMs, pMinCMV. Format: cell-based. From the text:
In the work in yeast, clamp-dependent assembly was initially based on the ability of a zinc finger-based synthetic transcription factor (synTF) and clamp to induce higher reporter activation when co-expressed. To test the possibility that assembly-mediated gene expression also works in mammalian cells, a similar approach was taken. Expression plasmids were generated for synTF (sequence descriptions in Example 7) and a 2-unit (nc=2) clamp (sequence description in Example 7), both driven by a strong UBC promoter (pUBC, Ubiquitin C promoter). A corresponding HEK293FT reporter cell line was generated by lentiviral transduction of a synTF-responsive reporter construct, composed of 4 tandem 20-bp DNA-binding motifs (DBMs) upstream of a minimal CMV promoter (pMinCMV) driving expression of an mCherry fluorescent protein.
Different combinations of the synTF and clamp expression plasmids were transfected into the HEK293FT reporter line, and mCherry reporter expression was assayed using flow cytometry (see e.g., FIG. 19).
For orientation: In flow cytometry, cells or beads pass a laser one at a time.

HLETFF: the “Erb Kd (μM), PDZ affinity (Kp)” value on erbin PDZ domain is given as “nb”. The Kd on syntrophin PDZ domain amounted to 43.2 µM.
For IRETII the same measures were “nb” and 0.062 µM.
For IRETIL the same measures were “nb” and 0.18 µM.
For IRETIV, the Kd at erbin PDZ domain was determined as 3.46 µM; on syntrophin PDZ domain, 0.88 µM.
As for IRWTIV, the Kd on erbin PDZ domain was determined as 1.73 µM; on syntrophin PDZ domain it was 0.49 µM.
On the same counts, the results for PVDSWV are 0.42 µM and 1.57 µM.
As to VKEAAA, the “Erb Kd (μM), PDZ affinity (Kp)” value on erbin PDZ domain was “nb”. Also, at syntrophin PDZ domain, the “Syn Kd (μM), PDZ affinity (Kp)” value is on record as “nb”.
For VKEALV, the “Erb Kd (μM), PDZ affinity (Kp)” value on erbin PDZ domain is given as “nb”. Also, the equilibrium dissociation constant (Kd) at syntrophin PDZ domain stood at 27.3 µM.
As to VKESLV, the dissociation constant Kd turned out to be 5.71 µM at erbin PDZ domain and 1.97 µM at syntrophin PDZ domain.
For the molecule WLKTWV, on erbin PDZ domain, the Kd was determined as 0.33 µM. Besides, the “Syn Kd (μM), PDZ affinity (Kp)” value on syntrophin PDZ domain is given as “nb”.
Regarding WLVTWV, the Kd at erbin PDZ domain is 0.1 µM. The “Syn Kd (μM), PDZ affinity (Kp)” value at syntrophin PDZ domain is listed as “nb”.

B1: synTF: MBP-ZF43-8 fusion harboring a VKESLV-type syntrophin PDZ ligand, titrated against DBM oligo probe (protein)
chain: GEAPFQCRICMANFSRQDRLDRHTRTHTGEKPFQCRICMANFSQKEHLAGHLRTHTGEKPFQCRICMANFSRRDNLNRHLKTHLRGSGSGVKESLV
modifications: left off: large carriers
notes: MBP-ZF43-8 fusion harboring a VKESLV-type syntrophin PDZ ligand, titrated against DBM oligo probe
On to B1, for which the “cooperativity (nH)” value in assay [1] (nc=2 probe, two-PDZ clamp added (2 μM)) was determined as 1.81; in assay [1] (nc=2 probe, without clamp), 1.07; in assay [1] (nc=3 probe and three-repeat clamp) it was 2.55. The concentration for a half-maximal effect (EC50) in assay [1] (nc=2 probe, without clamp, read-out: affinity of synTFs for the probe (EC50)) is 210 nM.

B2: clamp: SEQ ID NO: 144, 2-unit clamp of α-syntrophin PDZ domains with 3x FLAG tag and NLS (protein)
chain: MDYKDHDGDYKDHDIDYKDDDDKMAPKKKRKVVELQRRRVTVRKADAGGLGISIKGGRENKMPILISKIFKGLAADQTEALFVGDAILSVNGEDLSSATHDEAVQALKKTGKEVVLEVKYMKEVSPYFKGSGGSSGSGPGSSGGSGPGSGSSGGSGSGPGSGGSSGPGSETELVELQRRRVTVRKADAGGLGISIKGGRENKMPILISKIFKGLAADQTEALFVGDAILSVNGEDLSSATHDEAVQALKKTGKEVVLEVKYMKEVSPYFKG
As for B2, the mCherry reporter expression entry in assay [2] is given as “enhancement of reporter activation”.
